Like-named read-outs stand apart in the source and are kept apart here.
What was measured:
NCI-H358 (K-Ras G12C) = assay: CellTiter-Glo cell viability assay; format: cell-based; conditions: Homo sapiens, NCI-H358, 120 h
In short: (§1)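 Test compounds were dispensed directly onto seeded cells, and on day 5 plates were brought to room temperature for about 30 minutes before CellTiter-Glo luminescence was read. Signals were expressed as percent of the mean DMSO control and fitted with a four-parameter logistic model.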

AsPC-1 (K-Ras G12D) [1] = assay: CellTiter-Glo cell viability assay; format: cell-based; conditions: Homo sapiens, ASPC1, 120 h
In short: as §1

KRAS G12C = KRAS G12C (Homo sapiens, UniProt P01116+P62937, G12C); assay: Ras-Raf disruption / FRET / MOA assay (BRAF RBD); format: biochemical; conditions: with Cyclophilin A
Sequence of KRAS G12C (P01116 1-169 isoform P01116-2 G12C limits assumed): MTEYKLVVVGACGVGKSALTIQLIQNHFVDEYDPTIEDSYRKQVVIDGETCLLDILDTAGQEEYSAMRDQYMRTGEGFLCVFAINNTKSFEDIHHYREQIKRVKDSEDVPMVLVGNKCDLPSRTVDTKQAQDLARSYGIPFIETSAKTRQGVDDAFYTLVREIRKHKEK
Sequence of KRAS G12C (P62937 whole entry): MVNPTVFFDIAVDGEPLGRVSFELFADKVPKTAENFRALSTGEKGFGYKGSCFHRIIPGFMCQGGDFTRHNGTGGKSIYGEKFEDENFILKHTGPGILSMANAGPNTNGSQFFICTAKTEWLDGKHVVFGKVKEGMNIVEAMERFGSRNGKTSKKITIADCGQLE
In short: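 His6-K-Ras G12C-GMPPNP (12.5 nM), GST-BRAF RBD (50 nM) and tagless Cyclophilin A (25 μM) incubated 3 h at 25 °C with compound (10-point 3-fold series from 30 μM), pH 7.3 HEPES buffer. Anti-His Eu/anti-GST APC added for 1.5 h; decreased TR-FRET ratio vs DMSO gives IC50.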

AsPC-1 (K-Ras G12D) [2] = assay: Potency assay: pERK; format: cell-based; conditions: Homo sapiens
KRAS G12V = KRAS G12V (Homo sapiens, UniProt P01116+P62937, G12V); assay: Ras-Raf disruption / FRET / MOA assay (BRAF RBD); format: biochemical; conditions: with Cyclophilin A
Sequence of KRAS G12V (P01116 1-169 isoform P01116-2 G12V limits assumed): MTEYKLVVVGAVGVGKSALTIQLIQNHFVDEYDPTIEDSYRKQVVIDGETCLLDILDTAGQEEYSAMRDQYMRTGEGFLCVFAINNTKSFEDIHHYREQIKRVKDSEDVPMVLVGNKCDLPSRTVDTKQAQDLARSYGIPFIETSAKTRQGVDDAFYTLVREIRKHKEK
Sequence of KRAS G12V (P62937 whole entry): as the sequence (P62937 whole entry) above
In short: (§2)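 TR-FRET in 25 mM HEPES pH 7.3, 100 mM NaCl, 5 mM MgCl2, 0.1% BSA, 0.002% Tween20 with 25 μM Cyclophilin A, 12.5 nM His6-Ras-GMPPNP, 50 nM GST-BRAF RBD; compound 10-point 3-fold series from 30 μM. After 3 h at 25 °C, Eu anti-His/APC anti-GST added for 1.5 h; IC50 from ratio decrease versus DMSO.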

KRAS G13C = KRAS G13C (Homo sapiens, UniProt P01116+P62937, G13C); assay: Ras-Raf disruption / FRET / MOA assay (BRAF RBD); format: biochemical; conditions: with Cyclophilin A
Sequence of KRAS G13C (P01116 1-169 isoform P01116-2 G13C limits assumed): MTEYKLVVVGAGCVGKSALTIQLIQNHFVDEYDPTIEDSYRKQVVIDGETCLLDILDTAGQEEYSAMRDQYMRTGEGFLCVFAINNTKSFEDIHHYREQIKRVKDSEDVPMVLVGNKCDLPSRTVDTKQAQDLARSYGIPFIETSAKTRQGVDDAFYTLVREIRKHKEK
Sequence of KRAS G13C (P62937 whole entry): as the sequence (P62937 whole entry) above
In short: as §2

KRAS G13D = KRAS G13D (Homo sapiens, UniProt P01116+P62937, G13D); assay: Ras-Raf disruption / FRET / MOA assay (BRAF RBD); format: biochemical; conditions: with Cyclophilin A
Sequence of KRAS G13D (P01116 1-169 isoform P01116-2 G13D limits assumed): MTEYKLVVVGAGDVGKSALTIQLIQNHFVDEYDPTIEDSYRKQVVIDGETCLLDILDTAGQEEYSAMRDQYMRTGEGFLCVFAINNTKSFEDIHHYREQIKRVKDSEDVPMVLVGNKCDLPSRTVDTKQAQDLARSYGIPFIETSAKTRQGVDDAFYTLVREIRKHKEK
Sequence of KRAS G13D (P62937 whole entry): as the sequence (P62937 whole entry) above
In short: as §2

KRAS WT = KRAS WT (Homo sapiens, UniProt P01116+P62937); assay: Ras-Raf disruption / FRET / MOA assay (BRAF RBD); format: biochemical; conditions: with Cyclophilin A
Sequence of KRAS WT (P01116 1-169 isoform P01116-2 limits assumed): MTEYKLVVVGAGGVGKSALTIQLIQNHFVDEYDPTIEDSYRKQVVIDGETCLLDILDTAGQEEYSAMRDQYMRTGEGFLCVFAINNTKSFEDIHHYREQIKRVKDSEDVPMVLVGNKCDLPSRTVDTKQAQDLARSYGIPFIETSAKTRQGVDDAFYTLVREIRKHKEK
Sequence of KRAS WT (P62937 whole entry): as the sequence (P62937 whole entry) above
In short: as §2

KRAS G12D = KRAS G12D (Homo sapiens, UniProt P01116+P62937, G12D); assay: Ras-Raf disruption / FRET / MOA assay (BRAF RBD); format: biochemical; conditions: with Cyclophilin A
Sequence of KRAS G12D (P01116 1-169 isoform P01116-2 G12D limits assumed): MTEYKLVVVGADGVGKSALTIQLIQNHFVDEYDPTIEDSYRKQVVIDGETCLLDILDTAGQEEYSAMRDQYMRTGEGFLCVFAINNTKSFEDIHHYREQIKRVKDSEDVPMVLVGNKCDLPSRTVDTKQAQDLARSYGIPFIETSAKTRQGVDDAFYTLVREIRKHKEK
Sequence of KRAS G12D (P62937 whole entry): as the sequence (P62937 whole entry) above
In short: as §2

KRAS G12S = KRAS G12S (Homo sapiens, UniProt P01116+P62937, G12S); assay: Ras-Raf disruption / FRET / MOA assay (BRAF RBD); format: biochemical; conditions: with Cyclophilin A
Sequence of KRAS G12S (P01116 1-169 isoform P01116-2 G12S limits assumed): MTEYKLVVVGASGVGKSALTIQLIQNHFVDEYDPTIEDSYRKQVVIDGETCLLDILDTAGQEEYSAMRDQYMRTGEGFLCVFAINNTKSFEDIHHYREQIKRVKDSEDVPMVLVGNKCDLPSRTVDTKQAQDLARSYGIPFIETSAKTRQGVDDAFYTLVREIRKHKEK
Sequence of KRAS G12S (P62937 whole entry): as the sequence (P62937 whole entry) above
In short: as §2

NRAS G12C = NRAS G12C (Homo sapiens, UniProt P01111+P62937, G12C); assay: Ras-Raf disruption / FRET / MOA assay (BRAF RBD); format: biochemical
Sequence of NRAS G12C (P01111 whole entry G12C): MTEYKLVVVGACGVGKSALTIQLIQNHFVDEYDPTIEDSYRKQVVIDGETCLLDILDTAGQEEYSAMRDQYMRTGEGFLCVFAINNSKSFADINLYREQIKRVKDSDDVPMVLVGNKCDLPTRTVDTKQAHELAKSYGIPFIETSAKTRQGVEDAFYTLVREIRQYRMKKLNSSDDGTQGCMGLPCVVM
Sequence of NRAS G12C (P62937 whole entry): as the sequence (P62937 whole entry) above
In short: as §2

[3] = read-out: H358 Cell Viability assay data IC50, K-Ras G12C, 5-day treatment
[4] = read-out: AsPC-1 Cell Viability assay data IC50, K-Ras G12D, 5-day treatment
[5] = KRAS G12C FRET data IC50, Ras-Raf disruption
[6] = KRAS G12V FRET data IC50, Ras-Raf disruption
[7] = KRAS G13C FRET data IC50, Ras-Raf disruption
[8] = KRAS G13D FRET data IC50, Ras-Raf disruption
[9] = KRAS WT FRET data IC50, Ras-Raf disruption
[10] = KRAS G12D FRET data IC50, Ras-Raf disruption
[11] = KRAS G12S FRET data IC50, Ras-Raf disruption
[12] = NRAS G12C FRET data IC50, NRAS G12C

Structure (SMILES) | IC50 (NCI-H358 (K-Ras G12C); [3]) | IC50 (AsPC-1 (K-Ras G12D) [1]; [4]) | IC50 (KRAS G12C; [5]) | EC50 (AsPC-1 (K-Ras G12D) [2]; ASPC1, read-out: pERK EC50) | IC50 (KRAS G12V; [6]) | IC50 (KRAS G13C; [7]) | IC50 (KRAS G13D; [8]) | IC50 (KRAS WT; [9]) | IC50 (KRAS G12D; [10]) | IC50 (KRAS G12S; [11]) | IC50 (NRAS G12C; [12]) | further results
CCn1c(-c2cccnc2[C@H](C)OC)c2c3cc(ccc31)-c1cc(O)cc(c1)C[C@H](NC(=O)[C@H](C(C)C)N(C)C(=O)CN(C)C(=O)C1CN1CCOC)C(=O)N1CCC[C@H](N1)C(=O)OCC(C)(C)C2 (stereo partly drawn) [Example 90] | < 10 nM | 100 to 1000 nM | < 10 nM | < 5000 nM | 10 to 100 nM | 10 to 100 nM | 100 to 1000 nM | 10 to 100 nM | 100 to 1000 nM | 10 to 100 nM | < 10 nM | 
CCn1c(-c2cccnc2[C@H](C)OC)c2c3cc(ccc31)-c1cc(O)cc(c1)C[C@H](NC(=O)[C@H](C(C)C)N(C)C(=O)CN(C)C(=O)[C@@H]1CN1C(C)C)C(=O)N1CCC[C@H](N1)C(=O)OCC(C)(C)C2 (stereo partly drawn) [Example 148] | < 10 nM | 100 to 1000 nM | < 10 nM | < 5000 nM | 10 to 100 nM | 10 to 100 nM | 10 to 100 nM | 10 to 100 nM | 10 to 100 nM | 10 to 100 nM | < 10 nM | 
CCn1c(-c2cccnc2[C@H](C)OC)c2c3cc(ccc31)-c1cc(O)cc(c1)C[C@H](NC(=O)[C@H](C(C)C)N(C)C(=O)CN(C)C(=O)[C@H]1CN1Cc1ccccc1CO)C(=O)N1CCC[C@H](N1)C(=O)OCC(C)(C)C2 (stereo partly drawn) [Example 156] | < 10 nM | 100 to 1000 nM | < 10 nM | < 5000 nM | 10 to 100 nM | 10 to 100 nM | 100 to 1000 nM | 10 to 100 nM | 100 to 1000 nM | 10 to 100 nM | < 10 nM | 
CCn1c(-c2cccnc2[C@H](C)OC)c2c3cc(ccc31)-c1cc(O)cc(c1)C[C@H](NC(=O)[C@H](C1CCCC1)N(C)C(=O)CN(C)C(=O)[C@H]1CN1)C(=O)N1CCC[C@H](N1)C(=O)OCC(C)(C)C2 [Example 95] | < 10 nM | 10 to 100 nM | < 10 nM | < 5000 nM | 10 to 100 nM | 10 to 100 nM | 10 to 100 nM | 10 to 100 nM | 10 to 100 nM | 10 to 100 nM | < 10 nM | 
CCn1c(-c2cccnc2[C@H](C)OC)c2c3cc(ccc31)-c1cc(O)cc(c1)C[C@H](NC(=O)[C@H](C1CCCC1)N(C)C(=O)[C@H]1CCN(C[C@H]3CN3)C1=O)C(=O)N1CCC[C@H](N1)C(=O)OCC(C)(C)C2 [Example 58] |  |  |  |  |  |  |  |  |  |  |  | IC50 (NCI-H358 (K-Ras G12C); K-Ras G12C, 5-day treatment, read-out: H358 Cell Viability assay data IC50): < 10 nM; IC50 (AsPC-1 (K-Ras G12D) [1]; K-Ras G12D, 5-day treatment, read-out: AsPC-1 Cell Viability assay data IC50): 100 to 1000 nM; IC50 (KRAS G12C; Ras-Raf disruption, read-out: KRAS G12C FRET data IC50): < 10 nM; EC50 (AsPC-1 (K-Ras G12D) [2]; ASPC1, AsPC-1 KRAS G12D, read-out: pERK EC50): < 5000 nM; IC50 (KRAS G12V; Ras-Raf disruption, read-out: KRAS G12V FRET data IC50): 10 to 100 nM; IC50 (KRAS G13C; Ras-Raf disruption, read-out: KRAS G13C FRET data IC50): 10 to 100 nM; IC50 (KRAS G13D; Ras-Raf disruption, read-out: KRAS G13D FRET data IC50): 10 to 100 nM; IC50 (KRAS WT; Ras-Raf disruption, read-out: KRAS WT FRET data IC50): 10 to 100 nM; IC50 (KRAS G12D; Ras-Raf disruption, read-out: KRAS G12D FRET data IC50): 100 to 1000 nM; IC50 (KRAS G12S; Ras-Raf disruption, read-out: KRAS G12S FRET data IC50): 10 to 100 nM; IC50 (NRAS G12C; NRAS G12C, read-out: NRAS G12C FRET data IC50): < 10 nM
CCn1c(-c2cccnc2[C@H](C)OC)c2c3cc(ccc31)-c1cc(O)cc(c1)C[C@H](NC(=O)[C@H](C(C)C)N(C)C(=O)CN(C)C(=O)[C@H]1CN1CCCOC)C(=O)N1CCC[C@H](N1)C(=O)OCC(C)(C)C2 (stereo partly drawn) [Example 201] | < 10 nM | 100 to 1000 nM | < 10 nM | < 5000 nM | 10 to 100 nM | 10 to 100 nM | 100 to 1000 nM | 10 to 100 nM | 100 to 1000 nM | 10 to 100 nM | < 10 nM | 

Source: patent publication US20230233569A1 (Revolution Medicines, Inc., priority 2020, published 2023)
